Reference: patent publication US10005792B2, “Aminoindane-, aminotetrahydronaphthalene- and aminobenzocyclobutane-derived PRMT5-inhibitors” (CTXT PTY LTD, priority 2014, dated 2018)
Where a name gives a salt, the structure may show the parent alone.

Biological target: Full-length PRMT5 enzyme co-expressed with MEP50 (Homo sapiens (Human), UniProt O14744)
Assay: Revised PRMT5 Biochemical Assay
Conditions: 1 μM histone H4 derived peptide substrate, 1 μM S-Adenosyl methionine, 4 hours at 37 degree Celsius, Transcreener EPIGEN fluorescence polarisation
Experimental: Compounds of the invention may be tested for in vitro activity in the following assay: A histone H4 derived peptide is used as substrate (amino acid sequence: […]NH2). Full-length PRMT5 enzyme (NCBI Reference sequence NP-006100.2) was co-expressed with Hiss-MEP50 in insect cells and purified via Nickel immobilized metal affinity and gel filtration chromatography (“the enzyme”).
The 6 μL reactions are run in Greiner brand black 384-well low volume assay plates. All reactions contained assay buffer (phosphate buffered saline, 0.01% (v/v) Tween-20, 0.01% (w/v) albumin from chicken egg white, 1 mM Dithiothreitol, 1 μM peptide substrate, 1 μM S-Adenosyl methionine, and 15 ng/reaction enzyme, with the enzyme being omitted from negative control reactions. Compounds were added in a volume of 100 nL from dilution series prepared in DMSO, positive and negative control reactions receiving the same volume DMSO without compound. The plates were sealed with adhesive seals and incubated for 4 hours at 37 degree Celsius. Reaction progress was measured using the Transcreener™ EPIGEN methyltransferase assay (BellBrook Labs, Madison, Wis.) as recommended by the manufacturer. To each reaction 2 μL detection mix were added, containing coupling enzymes, fluorescence polarisation tracer, and AMP antibody. Plates were incubated for 90 minutes before being read on a PerkinElmer EnVision™ plate reader in fluorescence polarisation mode. IC50 values were obtained from the raw readings by calculating percent inhibition (% I) for each reaction relative to controls on the same plate (% I=(I−CN)/(CP−CN) where CN/CP are the averages of the negative/positive reactions, respectively), then fitting the % I data vs. compound concentration [I] to % I=([…]) where A is the lower asymptote, B is the upper asymptote, C is the IC50 value, and D is the slope.

Chain of Full-length PRMT5 enzyme co-expressed with MEP50 (O14744 whole entry): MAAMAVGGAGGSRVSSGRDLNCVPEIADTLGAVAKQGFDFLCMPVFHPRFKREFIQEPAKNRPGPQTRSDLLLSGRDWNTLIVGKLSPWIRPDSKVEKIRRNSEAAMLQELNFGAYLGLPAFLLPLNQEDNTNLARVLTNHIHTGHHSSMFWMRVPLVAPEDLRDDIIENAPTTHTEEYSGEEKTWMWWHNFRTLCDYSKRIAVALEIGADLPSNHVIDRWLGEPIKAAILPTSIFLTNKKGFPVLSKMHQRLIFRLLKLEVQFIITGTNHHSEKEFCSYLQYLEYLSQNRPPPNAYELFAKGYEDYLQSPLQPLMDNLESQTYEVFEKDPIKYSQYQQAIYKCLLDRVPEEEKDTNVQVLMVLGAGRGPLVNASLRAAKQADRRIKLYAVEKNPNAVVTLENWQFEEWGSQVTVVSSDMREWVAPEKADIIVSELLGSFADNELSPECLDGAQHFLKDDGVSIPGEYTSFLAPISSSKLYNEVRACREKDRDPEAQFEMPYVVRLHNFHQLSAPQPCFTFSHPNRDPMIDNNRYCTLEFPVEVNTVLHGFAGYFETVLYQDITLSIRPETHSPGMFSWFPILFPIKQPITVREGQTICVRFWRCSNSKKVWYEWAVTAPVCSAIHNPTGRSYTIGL
Chain of Full-length PRMT5 enzyme co-expressed with MEP50 (Q9BQA1 whole entry partner): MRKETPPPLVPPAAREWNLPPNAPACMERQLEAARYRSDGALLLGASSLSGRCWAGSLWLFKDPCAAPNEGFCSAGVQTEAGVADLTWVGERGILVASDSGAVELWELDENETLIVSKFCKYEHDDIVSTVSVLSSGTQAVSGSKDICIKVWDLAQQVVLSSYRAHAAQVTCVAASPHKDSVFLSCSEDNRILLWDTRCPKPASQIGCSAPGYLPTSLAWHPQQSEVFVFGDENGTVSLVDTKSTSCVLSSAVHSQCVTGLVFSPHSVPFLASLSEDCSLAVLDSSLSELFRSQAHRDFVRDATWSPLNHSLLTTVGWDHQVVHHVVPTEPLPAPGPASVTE

Row | Compound | IC50 [µM]
1 | O=C(NC[C@H](O)CNC1Cc2ccccc2C1)c1ccc(CC(=O)N2CCCC2)cc1 [Compound 91, (R)-N-(3-((2,3-dihydro-1H-inden-2-yl)amino)-2-hydroxypropyl)-4-(2-oxo-2-(pyrrolidin-1-yl)ethyl)benzamide] | 1.23
2 | CCOc1nc(C(=O)N2C3CCC2COC3)ccc1C(=O)NC[C@@H](O)CNC1Cc2ccccc2C1 [Compound 115, 6-(3-oxa-8-azabicyclo[3.2.1]octane-8-carbonyl)-N-((S)-3-((2,3-dihydro-1H-inden-2-yl)amino)-2-hydroxypropyl)-2-ethoxynicotinamide] | 0.305
3 | CCOc1cc(C(=O)N2C3CCC2COC3)c(F)cc1C(=O)NC[C@@H](O)CNC1Cc2ccccc2C1 [Compound 141, 4-(3-oxa-8-azabicyclo[3.2.1]octane-8-carbonyl)-N—((S)-3-((2,3-dihydro-1H-inden-2-yl)amino)-2-hydroxypropyl)-2-ethoxy-5-fluorobenzamide] | 0.695
4 | O=C(NC[C@@H](O)CNC1Cc2ccccc2C1)c1ccc(C(=O)N2CCS(=O)(=O)CC2)cc1 [Compound 65, (S)—N-(3-((2,3-dihydro-1H-inden-2-yl)amino)-2-hydroxypropyl)-4-(1,1-dioxidothiomorpholine-4-carbonyl)benzamide] | 1.3
5 | CC(=O)N1CCC(Oc2cc(C(=O)NCC(O)CNC3Cc4ccccc4C3)ccn2)CC1 (stereo not shown) [Compound 50, 2-((1-Acetylpiperidin-4-yl)oxy)-N-(3-((2,3-dihydro-1H-inden-2-yl)amino)-2-hydroxypropyl)isonicotinamide] | 0.466
6 | CC(=O)N1CC(Nc2cc(C(=O)NC[C@@H](O)CNC3Cc4ccccc4C3)ccn2)C1 [Compound 110, (S)-2-((1-Acetylazetidin-3-yl)amino)-N-(3-((2,3-dihydro-1H-inden-2-yl)amino)-2-hydroxypropyl)isonicotinamide bis 2,2,2-trifluoroacetic acid salt] | 0.166
7 | O=C(NC[C@@H](O)CNC1Cc2ccccc2C1)c1ccc(C(=O)N2[C@@H]3CCC[C@H]2COC3)cc1 [Compound 136, 4-((1R,5S)-3-Oxa-9-azabicyclo[3.3.1]nonane-9-carbonyl)-N—((S)-3-((2,3-dihydro-1H-inden-2-yl)amino)-2-hydroxypropyl)benzamide] | 0.05
8 | O=C(NCC(O)CNC1Cc2ccccc2C1)c1ccc2c(c1)CCN(C(=O)CC1CC1)C2 (racemic) [Compound 94, 2-(2-cyclopropylacetyl)-N-(3-((2,3-dihydro-1H-inden-2-yl)amino)-2-hydroxypropyl)-1,2,3,4-tetrahydroisoquinoline-6-carboxamide] | 1.35
9 | COc1cc(CC(=O)N2CCOCC2)ccc1C(=O)NC[C@@H](O)CNC1Cc2ccccc2C1 [Compound 87, (S)-N-(3-((2,3-dihydro-1H-inden-2-yl)amino)-2-hydroxypropyl)-2-methoxy-4-(2-morpholino-2-oxoethyl)benzamide] | 2.76
10 | CC(=O)N1CCC(Nc2nccc(C(=O)NCC(O)CNC3Cc4ccccc4C3)n2)CC1 (stereo not shown) [Compound 54, 2-((1-Acetylpiperidin-4-yl)amino)-N-(3-((2,3-dihydro-1H-inden-2-yl)amino)-2-hydroxypropyl)pyrimidine-4-carboxamide] | 5.77
11 | O=C(NCC(O)CNC1Cc2ccccc2C1)c1ccnc(OC2CCNCC2)c1 (stereo not shown) [Compound 51, N-(3-((2,3-dihydro-1H-inden-2-yl)amino)-2-hydroxypropyl)-2-(piperidin-4-yloxy)isonicotinamide] | 0.709
12 | CCOc1c(C(=O)NC[C@@H](O)CNC2Cc3ccccc3C2)ccc(C(=O)N2CCOCC2)c1C [Compound 130, (S)-N-(3-((2,3-dihydro-1H-inden-2-yl)amino)-2-hydroxypropyl)-2-ethoxy-3-methyl-4-(morpholine-4-carbonyl)benzamide] | 1.13
13 | CCOc1cc(C(=O)N2CCOCC2)c(C)cc1C(=O)NC[C@@H](O)CNC1Cc2ccccc2C1 [Compound 122, (S)-N-(3-((2,3-dihydro-1H-inden-2-yl)amino)-2-hydroxypropyl)-2-ethoxy-5-methyl-4-(morpholine-4-carbonyl)benzamide] | 0.166
14 | O=C(NC[C@@H](O)CNC1Cc2ccccc2C1)c1ccc(C(=O)N2CCCCC2)nc1 [Compound 68, (S)-N-(3-((2,3-dihydro-1H-inden-2-yl)amino)-2-hydroxypropyl)-6-(piperidine-1-carbonyl)nicotinamide] | 6.17
15 | O=C(NCC(CO)CNC1Cc2ccccc2C1)c1ccc(C(=O)N2CCOCC2)cc1 (stereo not shown) [Compound 108, N-(3-((2,3-Dihydro-1H-inden-2-yl)amino)-2-(hydroxymethyl)propyl)-4-(morpholine-4-carbonyl)benzamide] | 21.2
16 | O=C(NC[C@@H](O)CNC1Cc2ccccc2C1)c1ccc(C(=O)N2CCOCC23CCC3)cc1 [Compound 104, (S)-N-(3-((2,3-dihydro-1H-inden-2-yl)amino)-2-hydroxypropyl)-4-(8-oxa-5-azaspiro[3.5]nonane-5-carbonyl)benzamide] | 0.514
17 | O=C(NC[C@@H](O)CNC1Cc2ccccc2C1)c1ccc(C(=O)N2CC3(COC3)C2)cc1 [Compound 66, (S)-N-(3-((2,3-dihydro-1H-inden-2-yl)amino)-2-hydroxypropyl)-4-(2-oxa-6-azaspiro[3.3]heptane-6-carbonyl)benzamide] | 1.56
18 | O=C(NC[C@@H](O)CNC1Cc2ccccc2C1)c1ccc(CC(=O)N2CCCC2)cc1 [Compound 100, (S)-N-(3-((2,3-dihydro-1H-inden-2-yl)amino)-2-hydroxypropyl)-4-(2-oxo-2-(pyrrolidin-1-yl)ethyl)benzamide] | 1.1
19 | O=C(NCC(O)CNC1Cc2ccccc2C1)c1ccc(C(=O)N2CCCCC2)nc1 (racemic) [Compound 67, N-(3-((2,3-dihydro-1H-inden-2-yl)amino)-2-hydroxypropyl)-6-(piperidine-1-carbonyl)nicotinamide] | 6.87

Continued, values first:

Row | IC50 [µM] | Compound
20 | 5.08 | O=C(NC[C@@H](O)CNC1Cc2ccccc2C1)c1cccc(OC(F)F)c1 [Compound 119, (S)-3-(difluoromethoxy)-N-(3-((2,3-dihydro-1H-inden-2-yl)amino)-2-hydroxypropyl)benzamide]
21 | 0.853 | COC(=O)Cc1ccc(C(=O)NC[C@@H](O)CNC2Cc3ccccc3C2)cc1 [Compound 89, (S)-methyl 2-(4-((3-((2,3-dihydro-1H-inden-2-yl)amino)-2-hydroxypropyl)carbamoyl)phenyl)acetate]
22 | 1.81 | O=C(NCC(O)CNC1Cc2ccccc2C1)c1ccn(Cc2ccccc2)c(=O)c1 (racemic) [Compound 82, 1-benzyl-N-(3-((2,3-dihydro-1H-inden-2-yl)amino)-2-hydroxypropyl)-2-oxo-1,2-dihydropyridine-4-carboxamide]
23 | 0.373 | O=C(NCC(O)CNC1Cc2ccccc2C1)c1ccnc(NC2CCCC2)c1 (stereo not shown) [Compound 44, 2-(cyclopentylamino)-N-(3-((2,3-dihydro-1H-inden-2-yl)amino)-2-hydroxypropyl)isonicotinamide]
24 | 4.38 | CCCOc1ccccc1C(=O)NCC(O)CNC1Cc2ccccc2C1 (racemic) [Compound 73, N-(3-((2,3-dihydro-1H-inden-2-yl)amino)-2-hydroxypropyl)-2-propoxybenzamide]
25 | 3.13 | CC(C)Oc1ccccc1C(=O)NCC(O)CNC1Cc2ccccc2C1 (racemic) [Compound 74, N-(3-((2,3-dihydro-1H-inden-2-yl)amino)-2-hydroxypropyl)-2-isopropoxybenzamide]
26 | 16.9 | O=C(NC[C@@H](O)CNC1Cc2ccccc2C1)c1cccc(C(F)F)c1 [Compound 138, (S)-3-(difluoromethyl)-N-(3-((2,3-dihydro-1H-inden-2-yl)amino)-2-hydroxypropyl)benzamide]
27 | 4.15 | O=C(NC[C@@H](O)CNC1Cc2ccccc2C1)c1cccc2ncsc12 [Compound 113, (S)-N-(3-((2,3-dihydro-1H-inden-2-yl)amino)-2-hydroxypropyl) benzo[d]thiazole-7-carboxamide]
28 | 6.92 | O=C(NC[C@@H](O)CNC1Cc2ccccc2C1)c1cccc(C(=O)N2CCOCC2)c1 [Compound 62, (S)-N-(3-((2,3-dihydro-1H-inden-2-yl)amino)-2-hydroxypropyl)-3-(morpholine-4-carbonyl)benzamide]
29 | 11.4 | O=C(NCC(O)CNC1Cc2ccccc2C1)c1ccnc(N2CCOCC2)c1 (stereo not shown) [Compound 47, N-(3-((2,3-dihydro-1H-inden-2-yl)amino)-2-hydroxypropyl)-2-morpholinoisonicotinamide]
30 | 24 | COCc1ccccc1C(=O)NCC(O)CNC1Cc2ccccc2C1 (racemic) [Compound 79, N-(3-((2,3-dihydro-1H-inden-2-yl)amino)-2-hydroxypropyl)-2-(methoxymethyl)benzamide]
31 | 6.72 | O=C(NC[C@@H](O)CNC1Cc2ccccc2C1)c1cccc2scnc12 [Compound 125, (S)-N-(3-((2,3-dihydro-1H-inden-2-yl)amino)-2-hydroxypropyl)benzo[d]thiazole-4-carboxamide]
